From US7482425B2, “Compositions for lipid matrix-assisted chemical ligation” (Amylin Pharmaceuticals, Inc., priority 2002, dated 2009) come the findings set out here.

Where no end group is shown, it is not given here.

The conditions of this series: pH 7.5.

Regarding “TGRPEWIWLALGTALMGLGTLYFLVKGMGVSDPDAKK [Peptide 1, TGRPEWIWLALGTALMGLGTLYFLVKGMGVSDPDAKK]”, the solubility entry is on record as “does not dissolve”.
